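GI50 marks 50% less growth. TGI denotes the concentration required for complete inhibition of growth.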
Key:
Assay in all cases: NCI tumour cell line growth inhibition, 384-well format
786-0 renal = system: 786-0 renal
A498 renal = system: A498 renal
A549 NSCLC = system: A549 NSCLC
ACHN renal = system: ACHN renal
BT-549 breast = system: BT-549 breast
CAKI-1 renal = system: CAKI-1 renal
CCRF-CEM leukemia = system: CCRF-CEM leukemia
COLO 205 colon = system: COLO 205 colon
DU-145 prostate = system: DU-145 prostate
EKVX NSCLC = system: EKVX NSCLC
HCC-2998 colon = system: HCC-2998 colon
HCT-116 colon = system: HCT-116 colon
HCT-15 colon = system: HCT-15 colon
HL-60(TB) leukemia = system: HL-60(TB) leukemia
HOP-62 NSCLC = system: HOP-62 NSCLC
HOP-92 NSCLC = system: HOP-92 NSCLC
HS 578T breast = system: HS 578T breast
HT29 colon = system: HT29 colon
IGROV1 ovarian = system: IGROV1 ovarian
K-562 leukemia = system: K-562 leukemia
KM12 colon = system: KM12 colon
LOX IMVI melanoma = system: LOX IMVI melanoma
M14 melanoma = system: M14 melanoma
MALME-3M melanoma = system: MALME-3M melanoma
MCF7 breast = system: MCF7 breast
MDA-MB-231 breast = system: MDA-MB-231 breast
MDA-MB-435 melanoma = system: MDA-MB-435 melanoma
MDA-MB-468 breast = system: MDA-MB-468 breast
MOLT-4 leukemia = system: MOLT-4 leukemia
NCI-H226 lung = system: NCI-H226 lung
NCI-H23 lung = system: NCI-H23 lung
NCI-H322M lung = system: NCI-H322M lung
NCI-H460 NSCLC = system: NCI-H460 NSCLC
NCI-H522 lung = system: NCI-H522 lung
NCI/ADR-RES ovarian = system: NCI/ADR-RES ovarian
OVCAR-3 ovarian = system: OVCAR-3 ovarian
OVCAR-4 ovarian = system: OVCAR-4 ovarian
OVCAR-5 ovarian = system: OVCAR-5 ovarian
OVCAR-8 ovarian = system: OVCAR-8 ovarian
PC-3 prostate = system: PC-3 prostate
RPMI-8226 leukemia = system: RPMI-8226 leukemia
RXF 393 renal = system: RXF 393 renal
SF-268 CNS = system: SF-268 CNS
SF-295 CNS = system: SF-295 CNS
SF-539 CNS = system: SF-539 CNS
SK-MEL-28 melanoma = system: SK-MEL-28 melanoma
SK-MEL-5 melanoma = system: SK-MEL-5 melanoma
SK-OV-3 ovarian = system: SK-OV-3 ovarian
SN12C renal = system: SN12C renal
SNB-19 CNS = system: SNB-19 CNS
SNB-75 CNS = system: SNB-75 CNS
SW-620 colon = system: SW-620 colon
T-47D breast = system: T-47D breast
TK-10 renal = system: TK-10 renal
U251 glioblastoma = system: U251 glioblastoma
UACC-257 melanoma = system: UACC-257 melanoma
UACC-62 melanoma = system: UACC-62 melanoma
UO-31 renal = system: UO-31 renal

`C=CC(=O)Nc1cccc(Nc2nc(Nc3ccc(N4CCN(C(C)=O)CC4)cc3OC)ncc2C(F)(F)F)c1` showed a GI50 ([…]-0 renal) of 2.61 µM, a TGI (786-0 renal) of 13.7 µM and a GI50 (A498 renal) of 1.81 µM. The TGI (A498 renal) was 9.76 µM, the GI50 (A549 NSCLC) was 0.597 µM and the TGI (A549 NSCLC) was 4.84 µM. It also gave a GI50 (ACHN renal) of 1.94 µM, a TGI (ACHN renal) of 19 µM and a GI50 (BT-549 breast) of 2.87 µM. For the same molecule, the TGI (BT-549 breast) was 10.2 µM, the GI50 (CAKI-1 renal) was 1.91 µM and the TGI (CAKI-1 renal) was 6.28 µM. For the same molecule, the GI50 (CCRF-CEM leukemia) was 1.64 µM, the TGI (CCRF-CEM leukemia) was 3.22 µM and the GI50 (COLO 205 colon) was 1.34 µM. For the same molecule, the TGI (COLO 205 colon) was 3.19 µM, the GI50 (DU-145 prostate) was 3.51 µM and the TGI (DU-145 prostate) was 14 µM. The GI50 (EKVX NSCLC) was 1.07 µM, the TGI (EKVX NSCLC) was 3.72 µM and the GI50 (HCC-2998 colon) was 1.4 µM. It also gave a TGI (HCC-2998 colon) of 8.2 µM, a GI50 (HCT-116 colon) of 3.04 µM and a TGI (HCT-116 colon) of 13.1 µM. The GI50 (HCT-15 colon) was 2.17 µM, the TGI (HCT-15 colon) was 8.75 µM and the GI50 (HL-60(TB) leukemia) was 1.4 µM. For the same molecule, the TGI (HL-60(TB) leukemia) was 2.74 µM, the GI50 (HOP-62 NSCLC) was 1.97 µM and the TGI (HOP-62 NSCLC) was 12.4 µM. It also gave a GI50 (HOP-92 NSCLC) of 2.06 µM, a TGI (HOP-92 NSCLC) of 7.69 µM and a GI50 (HS 578T breast) of 1.9 µM. It also gave a TGI (HS 578T breast) of 6.58 µM, a GI50 (HT29 colon) of 1.8 µM and a TGI (HT29 colon) of 5.07 µM. For the same molecule, the GI50 (IGROV1 ovarian) was 0.493 µM, the TGI (IGROV1 ovarian) was 2.09 µM and the GI50 (K-562 leukemia) was 3.76 µM. For the same molecule, the TGI (K-562 leukemia) was 13.5 µM, the GI50 (KM12 colon) was 2.16 µM and the TGI (KM12 colon) was 14.4 µM. It also gave a GI50 (LOX IMVI melanoma) of 2.64 µM, a TGI (LOX IMVI melanoma) of 10.4 µM and a GI50 (M14 melanoma) of 1.94 µM. For the same molecule, the TGI (M14 melanoma) was 8.31 µM, the GI50 (MALME-3M melanoma) was 2.39 µM and the TGI (MALME-3M melanoma) was 8.83 µM. The GI50 (MCF7 breast) was 0.905 µM, the TGI (MCF7 breast) was 5.28 µM and the GI50 (MDA-MB-231 breast) was 3.46 µM. For the same molecule, the TGI (MDA-MB-231 breast) was 17.6 µM, the GI50 (MDA-MB-435 melanoma) was 4.73 µM and the TGI (MDA-MB-435 melanoma) was 17.1 µM. For the same molecule, the GI50 (MDA-MB-468 breast) was 0.157 µM, the TGI (MDA-MB-468 breast) was 0.81 µM and the GI50 (MOLT-4 leukemia) was 0.521 µM. The TGI (MOLT-4 leukemia) was 1.87 µM, the GI50 (NCI-H226 lung) was 1.38 µM and the TGI (NCI-H226 lung) was 6.51 µM. The GI50 (NCI-H23 lung) was 1.94 µM, the TGI (NCI-H23 lung) was 6.87 µM and the GI50 (NCI-H322M lung) was 1.22 µM. It also gave a TGI (NCI-H322M lung) of 3.35 µM, a GI50 (NCI-H460 NSCLC) of 2.71 µM and a TGI (NCI-H460 NSCLC) of 7.5 µM. For the same molecule, the GI50 (NCI-H522 lung) was 0.288 µM, the TGI (NCI-H522 lung) was 1.55 µM and the GI50 (NCI/ADR-RES ovarian) was 10.6 µM. The TGI (NCI/ADR-RES ovarian) was 22.7 µM, the GI50 (OVCAR-3 ovarian) was 2.05 µM and the TGI (OVCAR-3 ovarian) was 5.91 µM. For the same molecule, the GI50 (OVCAR-4 ovarian) was 4.33 µM, the TGI (OVCAR-4 ovarian) was 34.6 µM and the GI50 (OVCAR-5 ovarian) was 2.33 µM. It also gave a TGI (OVCAR-5 ovarian) of 14.6 µM, a GI50 (OVCAR-8 ovarian) of 2.83 µM and a TGI (OVCAR-8 ovarian) of 10.2 µM. It also gave a GI50 (PC-3 prostate) of 4.33 µM, a TGI (PC-3 prostate) of 15.9 µM and a GI50 (RPMI-8226 leukemia) of 1.89 µM. It also gave a TGI (RPMI-8226 leukemia) of 5.16 µM, a GI50 (RXF 393 renal) of 1.88 µM and a TGI (RXF 393 renal) of 6.6 µM. For the same molecule, the GI50 (SF-268 CNS) was 0.268 µM, the TGI (SF-268 CNS) was 2.24 µM and the GI50 (SF-295 CNS) was 6.74 µM. It also gave a TGI (SF-295 CNS) of 19.8 µM, a GI50 (SF-539 CNS) of 3.46 µM and a TGI (SF-539 CNS) of 14.1 µM. For the same molecule, the GI50 (SK-MEL-28 melanoma) was 10.2 µM, the TGI (SK-MEL-28 melanoma) was 23.9 µM and the GI50 (SK-MEL-5 melanoma) was 1.83 µM. The TGI (SK-MEL-5 melanoma) was 8.62 µM, the GI50 (SK-OV-3 ovarian) was 2.03 µM and the TGI (SK-OV-3 ovarian) was 9.89 µM. For the same molecule, the GI50 (SN12C renal) was 2.07 µM, the TGI (SN12C renal) was 9.13 µM and the GI50 (SNB-19 CNS) was 8.32 µM. For the same molecule, the TGI (SNB-19 CNS) was 20.9 µM, the GI50 (SNB-75 CNS) was 2.98 µM and the TGI (SNB-75 CNS) was 12.2 µM. For the same molecule, the GI50 (SW-620 colon) was 1.75 µM, the TGI (SW-620 colon) was 3.45 µM and the GI50 (T-47D breast) was 1.44 µM. For the same molecule, the TGI (T-47D breast) was 5.28 µM, the GI50 (TK-10 renal) was 1.62 µM and the TGI (TK-10 renal) was 4.78 µM. For the same molecule, the GI50 (U251 glioblastoma) was 5.04 µM, the TGI (U251 glioblastoma) was 17.2 µM and the GI50 (UACC-257 melanoma) was 2.54 µM. The TGI (UACC-257 melanoma) was 11.1 µM, the GI50 (UACC-62 melanoma) was 2.36 µM and the TGI (UACC-62 melanoma) was 11.8 µM. The GI50 (UO-31 renal) was 2.26 µM and the TGI (UO-31 renal) was 9.61 µM.
